Test results: patent US4032625A, “Bone-seeking technetium-99m complex” (priority 1975, dated 1977)

Assay: Distribution of 99mTc-EHDP and 85Sr in rabbits, simultaneous study (Example 2, Table 1)
Type: in vivo, New Zealand albino rabbits
Procedure: Adult New Zealand albino rabbits having an average weight of 3.8 kg were utilized. Strontium-85 was employed as a standard for comparison. […] Each dosage is contained in a volume of 1 ml.
The animals were sacrificed serially from 1 to 24 hours after injection and the activities in major organs were determined by counting multiple samples from each organ in a scintillation well counter (the technetium-99m counts were corrected for the Compton contributions from the strontium-85 activity in the technetium-99m energy window). Multiple samples were counted from the tibia, femur, spine and pelvic bones; the total activity in the skeleton was estimated by assuming the whole skeleton consisted of equal proportions by weight of tibia, spine, femur and pelvis and that the skeletal mass was 10% of the body weight. The red marrow was sampled from the femur and the total marrow was assumed to be 2.2% of the total body weight. Similarly, blood volume was assumed to be 7% and the skeletal muscle 43% of the body weight. The whole liver and both kidneys were weighed and multiple samples from each were counted to measure the total activity in each organ.
In another series of experiments carried out as described above, localization of technetium from its tin-phosphonate complex was determined in the callous of three week-old fractures of tibia in albino rabbits, again in comparison with strontium-85. Comparative radioassay of technetium-99m administered as the pertechnetate was measured in the callous of tibial fractures in rabbits at one and four hours after administration.

[85Sr] [^85 Sr]
% Dose in Whole Organ: Kidneys (1 Hr): 0.80 % dose | % Dose in Whole Organ: Liver (1 Hr): 1.57 % dose | % Dose in Whole Organ: One Femur (1 Hr): 1.04 % dose | % Dose: Urine (1 Hr): 6.96 % dose | % dose in whole organ: Blood (7% of body weight) (1 Hr): 11.9 % dose | % dose in whole organ: Bone(Avg) (10% of body weight) (1 Hr): 56.0 % dose | % dose in whole organ: Marrow (2.2% of body weight) (1 Hr): 0.91 % dose | % dose in whole organ: Muscle (43% of body weight) (1 Hr): 13.4 % dose | Bone/Muscle ratio (1 Hr): 19 | Ratio Bone/Blood (1 Hr): 3.4 | Ratio Bone/Marrow (1 Hr): 14 | Ratio Callus/N. Femur (1 Hr): 7 | Ratio Callus/N. Tibia (1 Hr): 9 | Ratio Plus/Blood (1 Hr): 18 | % Dose in Whole Organ: Kidneys (2 Hrs): 0.64 % dose | % Dose in Whole Organ: Liver (2 Hrs): 0.98 % dose | % Dose in Whole Organ: One Femur (2 Hrs): 1.21 % dose | % Dose: Urine (2 Hrs): 18.0 % dose | % dose in whole organ: Blood (7% of body weight) (2 Hrs): 7.08 % dose | % dose in whole organ: Bone(Avg) (10% of body weight) (2 Hrs): 49.4 % dose | % dose in whole organ: Marrow (2.2% of body weight) (2 Hrs): 0.76 % dose | % dose in whole organ: Muscle (43% of body weight) (2 Hrs): 8.8 % dose | Bone/Muscle ratio (2 Hrs): 32 | Ratio Bone/Blood (2 Hrs): 6.4 | Ratio Bone/Marrow (2 Hrs): 19 | % Dose in Whole Organ: Kidneys (4 Hrs): 0.34 % dose | % Dose in Whole Organ: Liver (4 Hrs): 0.62 % dose | % Dose in Whole Organ: One Femur (4 Hrs): 1.25 % dose | % Dose: Urine (4 Hrs): 22.7 % dose | % dose in whole organ: Blood (7% of body weight) (4 Hrs): 3.85 % dose | % dose in whole organ: Bone(Avg) (10% of body weight) (4 Hrs): 68.1 % dose | % dose in whole organ: Marrow (2.2% of body weight) (4 Hrs): 0.50 % dose | % dose in whole organ: Muscle (43% of body weight) (4 Hrs): 6.46 % dose | Bone/Muscle ratio (4 Hrs): 47 | Ratio Bone/Blood (4 Hrs): 13 | Ratio Bone/Marrow (4 Hrs): 32 | Ratio Callus/N. Femur (4 Hrs): 7 | Ratio Callus/N. Tibia (4 Hrs): 8 | Ratio Plus/Blood (4 Hrs): 81 | % Dose in Whole Organ: Kidneys (24 Hrs): 0.03 % dose | % Dose in Whole Organ: Liver (24 Hrs): 0.04 % dose | % Dose in Whole Organ: One Femur (24 Hrs): 0.93 % dose | % dose in whole organ: Blood (7% of body weight) (24 Hrs): 0.29 % dose | % dose in whole organ: Bone(Avg) (10% of body weight) (24 Hrs): 51.9 % dose | % dose in whole organ: Marrow (2.2% of body weight) (24 Hrs): 0.10 % dose | % dose in whole organ: Muscle (43% of body weight) (24 Hrs): 1.00 % dose | Bone/Muscle ratio (24 Hrs): 227 | Ratio Bone/Blood (24 Hrs): 134 | Ratio Bone/Marrow (24 Hrs): 119
